Columns and labels:
Format in all cases: physicochemical
[1] = Solubility profile of solid forms
[2] = Conversion of the crystalline form in aqueous media
[3] = Competitive slurries of Form A and Form B in a range of solvents
From the text: Form B also has a much higher melting endotherm.

solubility profile compared with Form A [1]	conversion to other solid forms in aqueous media [2]	relative stability of crystalline forms in competitive slurries [3]	Structure (SMILES)
different solubility profile	–	–	CC(C)Oc1cc(Oc2cnc(C(=O)N3CCC3)cn2)cc(C(=O)Nc2cc[nH]n2)c1 [amorphous form, 3-{[5-(azetidin-1-ylcarbonyl)pyrazin-2-yl]oxy}-5-[(1-methylethyl)oxy]-N-1H-pyrazol-3-ylbenzamide]
–	convert to the amorphous form	–	CC(C)Oc1cc(Oc2cnc(C(=O)N3CCC3)cn2)cc(C(=O)Nc2cc[nH]n2)c1 [Form A′, 3-{[5-(azetidin-1-ylcarbonyl)pyrazin-2-yl]oxy}-5-[(1-methylethyl)oxy]-N-1H-pyrazol-3-ylbenzamide]
–	convert to the amorphous form	–	CC(C)Oc1cc(Oc2cnc(C(=O)N3CCC3)cn2)cc(C(=O)Nc2cc[nH]n2)c1 [Form A, 3-{[5-(Azetidin-1-ylcarbonyl)pyrazin-2-yl]oxy}-5-[(1-methylethyl)oxy]-N-1H-pyrazol-3-ylbenzamide]

Structure (SMILES)	solubility profile compared with Form A [1]	conversion to other solid forms in aqueous media [2]	relative stability of crystalline forms in competitive slurries [3]
CC(C)Oc1cc(Oc2cnc(C(=O)N3CCC3)cn2)cc(C(=O)Nc2cc[nH]n2)c1 [Form B, 3-{[5-(azetidin-1-ylcarbonyl)pyrazin-2-yl]oxy}-5-[(1-methylethyl)oxy]-N-1H-pyrazol-3-ylbenzamide]	–	does not significantly convert to other forms	most stable form
